Laboratory results reported in patent US6462173B1, “Inhibitors of phosphoserine and phosphothreonine-proline-specific isomerases” (Max-Planck-Gesellschaft zur Forderung der, priority 1997, dated 2002).

How the values were obtained:
Xenopus embryos = test: Microinjection of Xenopus embryos, cell cycle block; format: in vivo
Description: Unfertilized eggs were incubated with sperm, dejellied, and 4 μM of the indicated protein (about 10 fold above the estimated endogenous levels) was injected in one cell of two cell stage embryos (30 embryos each protein). The injected embryos were allowed to develop at 18° C. to stage 8 and pictures were taken of typical embryos. The titration of Pin1 and the mutants was essentially as described above except that the indicated protein was injected into one cell of 4 cell stage (18 embryos each Pin1 concentration) to the indicated final concentration and allowed to develop for 3h. […] To be consistent, cell cycle blocked embryo's were scored as those that contained at least one cell on the injected side that was greater than 5 times larger than uninjected cells (FIG. 2).
To examine whether increasing the concentration of Pin1 has similar biological effects in Xenopus, Pin1 or Pin1 mutants were injected into one cell of 2 cell stage embryos and allowed the embryos to develop for 3 h (about 5 divisions). […] In contrast, the same extracts containing 40 μM of either BSA or the mutant Pin1 proteins entered mitosis by 70 to 80 min as detected by nuclear envelope breakdown, spindle formation and high histone H1 kinase activity. […]

Xenopus egg extracts = test: Entry into mitosis in Xenopus CSF egg extracts; format: biochemical; settings: 10 or 40 μM, added 15 min after Ca2+
Description: Xenopus CSF extracts were prepared from unfertilized eggs, as previously described (Murray, 1991) and used immediately. To examine the effect of Pin1 on mitotic entry, a fresh CSF extract containing demembranated sperm (150/μl) and rhodamine tubulin (2 μg/ml) was activated by addition of 0.4 mM calcium chloride for 15 min, before the indicated concentrations of various Pin1 proteins were added and mitotic entry was followed for 2 h by nuclear morphology, nuclear envelope breakdown, spindle formation and Cdc2 activity, as described previously (Murray, A. W., Methods Cell Biol 36:581-605 (1991)). The cell cycle state of nuclei within the extracts were over 90% synchronous and typical nuclei were photographed.
To examine whether increasing the concentration of Pin1 has similar biological effects in Xenopus, Pin1 or Pin1 mutants were injected into one cell of 2 cell stage embryos and allowed the embryos to develop for 3 h (about 5 divisions). […] A similar concentration (4 μM final) of either Pin1 mutant had little effect on the cell cycle. […] In contrast, higher concentrations of the mutant proteins were needed to block the cell cycle (FIG. 1). […] In contrast, the same extracts containing 40 μM of either BSA or the mutant Pin1 proteins entered mitosis by 70 to 80 min as detected by nuclear envelope breakdown, spindle formation and high histone H1 kinase activity. […]

## Pin1: essential mitotic peptidyl-prolyl cis-trans isomerase, recombinant protein
Xenopus embryos; 4 μM final, one cell of 2 cell stage embryos, 3 h
  cleavage of injected cells: failed to cleave or cleaved slowly
Xenopus embryos; 10 μM, approximately 20 fold above estimated endogenous levels
  inhibition of the cell cycle: completely inhibited the cell cycle
Xenopus egg extracts
  entry into mitosis: completely blocked entry into mitosis
